“And” between values parts separate entries of the source, which are not always exact repeats. Equal values may be shown once.

One assay deals with T1, SCD1 (Homo sapiens, UniProt O00767).
T1 construct: host or cells: S. cerevisiae ole1Δ strain, plasmid pRS316 with TDH3 promoter and CYC1 terminator
T1 sequence (O00767 1-359): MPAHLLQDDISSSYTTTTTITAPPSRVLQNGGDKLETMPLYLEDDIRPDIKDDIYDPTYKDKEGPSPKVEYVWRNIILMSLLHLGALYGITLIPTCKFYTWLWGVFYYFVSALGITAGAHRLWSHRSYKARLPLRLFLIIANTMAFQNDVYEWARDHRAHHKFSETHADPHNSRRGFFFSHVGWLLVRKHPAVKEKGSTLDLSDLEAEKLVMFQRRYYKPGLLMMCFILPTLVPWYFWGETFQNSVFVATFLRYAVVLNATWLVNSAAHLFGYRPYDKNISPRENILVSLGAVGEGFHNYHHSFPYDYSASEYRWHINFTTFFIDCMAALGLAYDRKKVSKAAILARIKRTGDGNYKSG
The experiment in a line: Growth inhibition of humanized yeast expressing SCD1 as sole desaturase. It counts as cell-based. The following applies: growth of humanized yeast strain expressing human SCD1. As to the method: (§1) Strain ole1Δ (yeast ole1 deletion mutant) was constructed by deleting OLE1 with NAT-MX6 in BY4741, amplifying the deletion cassette from the genomic DNA of the resulting strain with primers flanking the ORF by 1000 bp upstream and downstream, transforming the resulting deletion cassette into W303 pdr1Δ pdr3Δ, and plating transformants on YPD media containing G418 (200 μg/mL) and nourseothricin (100 μg/mL) with 0.01% TWEEN®-20 and 0.5 mM oleic and palmitoleic acids.
(§2) The coding sequence of yeast OLE1 was also cloned into this plasmid). These clones were then transformed into the ole1Δ strain and plated on CSM-Ura media (CSM lacking uracil) with 2% glucose (w/v) and independent colonies were isolated and amplified.
(§3) All compound profiling experiments were performed using the same basic protocol. Different genetic backgrounds (e.g., gene deletions) or conditions (e.g., addition of oleic and palmitoleic acid) were replaced as indicated below.
(§4) Yeast were cultured using standard techniques in complete synthetic media (CSM) and yeast nitrogen base supplemented with 2% (w/v) carbon source (glucose, raffinose, or galactose) to regulate the expression of the toxic disease protein. An initial starter culture was inoculated in 3 mL CSM-Glucose media and incubated overnight in a 30° C. shaker incubator (225 rpm). Saturated morning cultures were then diluted 1:20 in fresh CSM-Raffinose media and grown for 6 h to an OD600 (optical density) of ˜0.4-0.8 at 30° C. with shaking.
(§5) Compound administration was performed in two separate steps. First, 15 μL of CSM-Galactose (induces expression of toxic protein) was dispensed into clear 384 well assay plates using a MULTIDROP™ Combi reagent dispenser. […] The cultures described above were then diluted to a 2× concentration (0.03 and 0.08 for alpha-synuclein and ApoE, final OD600 of 0.015 and 0.04) in CSM-Galactose. For wild-type and Ole1/SCD1/SCD5 plasmid-containing strains, the 2× cell density was 0.02. […] For 96-well assays (FIGS. 1A and 1B), compound dilutions in DMSO were generated in 96 well plates and 1 μL was manually pipetted into 96 well clear bottom assay plates.
(§6) For experiments using a plasmid-borne copy of Ole1, SCD1, or SCD5 (FIGS. 3B, 6, and 7), media lacking uracil (SX-Ura, where X is glucose, raffinose, or galactose), was used for all steps of the compound profiling protocol to ensure its maintenance throughout the assay.
(§7) After yeast delivery, assay plates were incubated under humidified conditions at 30° C. for 24 to 40 h. ApoE4 rescue experiments were stopped at 24 h, aSyn experiments at 40 h, Ole1 at 24 h, and SCD1/SCD5 at 40 h. The growth of yeast was monitored by reading the OD600 of each well using a microplate reader (Perkin Elmer EnVision™).
`CC(C)n1ncc2ccc(N3CC4(CCN(C(=O)OC(C)(C)C)CC4)C3)cc21` [Compound 663] had a half-inhibitory concentration (IC50) of over 45 µM.
On the same count and under the same terms, under `CC(C)n1ncc2ccc(-c3noc(C4CCN(C(=O)c5ncco5)CC4)n3)cc21` [Compound 615] stands 0.848 µM.

Staying with this assay, now noted: humanized yeast expressing SCD1.
On to `CCN1C(=O)COc2ccc(-c3noc(C4(c5ccc(OC)cc5)CC4)n3)cc21` [Compound 491], for which the IC50 is over 45 µM.
Consider `COc1ccc(-c2noc(CCNC(=O)CNC(=O)c3ccccc3)n2)cc1OC` [Compound 484], for which the half-inhibitory concentration (IC50) is over 45 µM.
The same measure, in the same setting: the figure for `COc1ccc(-c2noc(CCNC(=O)COc3cc(O)c4c(c3)OC(C)(C)CC4=O)n2)cc1OC` [Compound 486] is over 45 µM.

Staying with this assay, now noted: humanized yeast expressing human SCD1.
Take `CC1=NN(C)C2C=C(c3noc([C@H]4CC[C@H](O)CC4)n3)C=CC12` (stereo partly shown) [Compound 526]: the IC50 was over 45 µM.
The compound `Cc1nn(C)c2cc(-c3noc(C4CN(C(=O)OC(C)(C)C)C4)n3)ccc12` [Compound 365] returned a half-maximal inhibitory concentration (IC50) of over 45 µM.
In turn, `COC(=O)N1CCC(c2nc(-c3ccc4c(C)nn(C)c4c3)no2)CC1` [Compound 273] had an IC50 of over 45 µM.
For the compound `CC(C)n1ncc2ccc(-c3noc(C4CCN(C(=O)c5cscn5)CC4)n3)cc21` [Compound 573], the IC50 is over 45 µM.
On the same count and under the same terms, under `Cc1nn(C)c2cc(-c3noc(C4CCN(C(=O)CNC(=O)c5ccc(Cl)cc5)CC4)n3)ccc12` [Compound 269] stands over 45 µM; under `Cc1nn(C)c2cc(-c3noc(C4CCN(S(=O)(=O)C(C)C)CC4)n3)ccc12` [Compound 279], over 45 µM; under `CC(C)n1ncc2ccc(-c3noc(C4CCN(C(=O)COc5ccccc5)CC4)n3)cc21` [Compound 358], over 45 µM.
For the compound `O=C([C@H]1CC(=O)N(c2ccccc2)C1)N1CCC(c2nc(-c3ccc(Br)s3)no2)CC1` [Compound 248], the IC50 is over 45 µM.
`CC(C)c1ccc(C(=O)N2CCC(c3nc(N4CC5(CCCO5)C4)no3)CC2)cc1` [Compound 336] gave an IC50 of over 45 µM.
On the same count and under the same terms, the figure for `Cc1nn(C)c2cc(-c3noc(C4CCN(C(=O)COc5ccccc5)CC4)n3)ccc12` [Compound 266] is over 45 µM.
`CC(C)n1ncc2ccc(-c3noc(N4CCN(C(=O)c5ccccc5Cl)CC4)n3)cc21` [Compound 364]: the half-inhibitory concentration (IC50) is over 45 µM.
Compound `N#Cc1cccc(N2C[C@@H](C(=O)N3CCC(c4nc(-c5ccc6cnn(C7COC7)c6c5)no4)CC3)CC2=O)c1` [Compound 599] yielded a concentration for half-maximal inhibition (IC50) of over 45 µM.
For the compound `CC(C)n1cc2ccc(-c3noc(C4CCN(C(=O)OC(C)(C)C)CC4)n3)cc2n1` [Compound 277], the IC50 was over 45 µM.
The same measure, in the same setting: under `Cc1nn(C)c2cc(-c3noc(C4CCN(C(=O)CC5CN(C(=O)OC(C)(C)C)C5)CC4)n3)ccc12` [Compound 502] stands over 45 µM; under `Cc1nn(C)c2cc(-c3noc(C4CCN(C(=O)N[C@@H]5C[C@@H]5c5ccccc5)CC4)n3)ccc12` [Compound 329], over 45 µM; under `CC(C)n1ncc2ccc(-c3noc(C4CCN(C(=O)c5ccc(Cl)cn5)CC4)n3)cc21` [Compound 586], over 45 µM.
In turn, `Cc1nn(C)c2cc(-c3noc(C4CCN(C(=O)NC(C)(C)C)CC4)n3)ccc12` [Compound 282] yielded a half-inhibitory concentration (IC50) of over 45 µM.
For the compound `CC(C)n1ncc2ccc(-c3noc(C4CCN(C(=O)c5ncccc5Cl)CC4)n3)cc21` [Compound 587], the IC50 is over 45 µM.
Same read-out and setting: under `CC(C)n1ncc2ccc(-c3noc(C4CCN(C(=O)c5ccc(Cl)c(F)c5)CC4)n3)cc21` [Compound 541] stands over 45 µM; under `CC(C)n1ncc2ccc(-c3nc(C4CCN(C(=O)CC5(C)CC5)CC4)no3)cc21` [Compound 546], over 45 µM; under `Cc1nn(C)c2cc(-c3noc(C4CCN(C(=O)Oc5ccccc5)CC4)n3)ccc12` [Compound 272], over 45 µM.
The same measure, in the same setting: under `Cc1nn(C)c2cc(-c3noc(N4CCN(C(=O)c5ccccc5C(F)(F)F)CC4)n3)ccc12` [Compound 295] stands over 45 µM.
The compound `Cc1nn(C)c2cc(-c3noc(N4CCN(C(=O)c5cccc(F)c5)CC4)n3)ccc12` [Compound 270] displayed an IC50 of over 45 µM.
The compound `Cc1nn(C)c2cc(-c3noc(C4CCN(C(=O)CNC(=O)c5cc(F)ccc5C(F)(F)F)CC4)n3)ccc12` [Compound 304] yielded a concentration for half-maximal inhibition (IC50) of over 45 µM.
The compound `Cc1nn(C)c2cc(-c3nsc(C4CCN(C(=O)CNC(=O)c5ccccc5)CC4)n3)ccc12` [Compound 250] displayed an IC50 of over 45 µM.
Regarding `O=C(NCC(=O)N1CCC(c2nc(-c3ccc4cnn(C5COC5)c4c3)no2)CC1)c1ccccc1` [Compound 598], the IC50 is over 45 µM.
In the case of `CC(C)n1ncc2ccc(-c3noc(N4CCN(C(=O)CC5(C)CC5)CC4)n3)cc21` [Compound 495], the IC50 is over 45 µM.
Same read-out and setting: under `Cc1c2ccc(-c3noc(C4CCN(C(=O)CNC(=O)c5ccccc5)CC4)n3)cc2nn1C(C)C` [Compound 289] stands over 45 µM.
`CC(C)n1ncc2ccc(-c3nc(C4CCN(C(=O)c5ccc(Cl)cc5)CC4)no3)cc21` [Compound 505] came in with an IC50 of over 45 µM.
Same read-out and setting: under `Cc1nn(C)c2cc(-c3noc(C4CCN(C(=O)c5ccc(C(C)C)cc5)CC4)n3)ccc12` [Compound 290] stands over 45 µM; under `CCN1C(=O)CN(C)c2cc(-c3noc(C4CCN(C(=O)CNC(=O)c5ccccc5)CC4)n3)ccc21` [Compound 310], over 45 µM.
On the same count and under the same terms, the figure for `CC(C)n1ncc2ccc(-c3noc(C4CCN(C(=O)c5ncc(Cl)s5)CC4)n3)cc21` [Compound 589] is over 45 µM.
The same measure, in the same setting: under `COC(=O)N1C[C@H]2CN(c3nc(-c4ccc5cnn(C(C)C)c5c4)no3)C[C@@H]2C1` [Compound 568] stands over 45 µM.

The assay is the same for the next values; noted with them: humanized yeast strain, 40 h.
Consider `COCC(C)(C)n1ncc2ccc(-c3noc(C4CCN(C(=O)OC(C)(C)C)CC4)n3)cc21` [Compound 788], for which the concentration for half-maximal inhibition (IC50) is over 45 µM.
On the same count and under the same terms, under `COC(=O)C1CCCN(c2noc(-c3ccc4cnn(C5COC5)c4c3)n2)CC1` (stereo not shown) [Compound 857] stands over 45 µM.

Another assay concerns the target T2, SCD5 (Homo sapiens, UniProt Q86SK9).
T2 construct: host or cells: S. cerevisiae ole1Δ strain, plasmid pRS316 with TDH3 promoter and CYC1 terminator
T2 sequence (Q86SK9 1-330): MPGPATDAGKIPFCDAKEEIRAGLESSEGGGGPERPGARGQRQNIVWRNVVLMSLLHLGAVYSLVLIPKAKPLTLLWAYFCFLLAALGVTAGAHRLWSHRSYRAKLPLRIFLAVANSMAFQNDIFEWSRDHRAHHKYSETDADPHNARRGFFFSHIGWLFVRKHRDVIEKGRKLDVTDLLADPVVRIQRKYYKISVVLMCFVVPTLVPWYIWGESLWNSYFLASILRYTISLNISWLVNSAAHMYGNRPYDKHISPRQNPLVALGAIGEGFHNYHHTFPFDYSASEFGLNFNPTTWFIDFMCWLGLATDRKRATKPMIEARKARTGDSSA
The experiment in a line: Growth inhibition of humanized yeast expressing SCD5 as sole desaturase. It counts as cell-based. The following applies: growth of humanized yeast strain expressing human SCD5. As for the experimental part:
as §1, §2, §3, §4, §5, §6, §7
The compound `CC(C)n1ncc2ccc(N3CC4(CCN(C(=O)OC(C)(C)C)CC4)C3)cc21` [Compound 663] had an IC50 of 0.01 µM.
The same measure, in the same setting: the figure for `CC(C)n1ncc2ccc(-c3noc(C4CCN(C(=O)c5ncco5)CC4)n3)cc21` [Compound 615] is 1.88 µM.

The same assay, now with this note: humanized yeast expressing SCD5.
On to `Cc1nn(C)c2cc(-c3nc(C4CCN(C(=O)OC(C)(C)C)CC4)no3)ccc12` [Compound 319], for which the “SCD5 % Max Inhibition” value is 4.96% and 10.94%.

Staying with this assay, now noted: humanized yeast expressing human SCD5.
Compound `N#Cc1cccc(N2CC(C(=O)N3CCC(c4nc(Cl)no4)CC3)CC2=O)c1` (stereo not shown) [Compound 350] gave an IC50 of at least 45 µM.
Take `CC1=NN(C)C2C=C(c3noc([C@H]4CC[C@H](O)CC4)n3)C=CC12` (stereo partly shown) [Compound 526]: the half-inhibitory concentration (IC50) was over 45 µM.
The compound `O=C(C1CC(=O)N(c2cccc(Cl)c2)C1)N1CCC(c2nc(Cl)no2)CC1` (stereo not shown) [Compound 348] displayed a concentration for half-maximal inhibition (IC50) of at least 45 µM.
On the same count and under the same terms, under `CC(C)n1ncc2ccc(-c3noc(N4CCN(C(=O)OC5CC5)CC4)n3)cc21` [Compound 496] stands 0.445 µM; under `CC(C)n1ncc2ccc(-c3nc(C4CCN(C(=O)c5cccc(F)c5)CC4)no3)cc21` [Compound 547], 44.3 µM.
Compound `O=C([C@H]1CC(=O)N(c2ccccc2)C1)N1CCC(c2nc(N3CC4(COC4)C3)no2)CC1` [Compound 316] yielded an IC50 of at least 45 µM.
Still for that read-out and setting: under `O=C(c1ccccc1)N1CCC(c2nc(Cl)no2)CC1` [Compound 351] stands at least 45 µM.

Staying with this assay, now noted: humanized yeast strain, 40 h.
Regarding `COCC(C)(C)n1ncc2ccc(-c3noc(C4CCN(C(=O)OC(C)(C)C)CC4)n3)cc21` [Compound 788], the IC50 was 6.22 µM.
On the same count and under the same terms, under `COC(=O)C1CCCN(c2noc(-c3ccc4cnn(C5COC5)c4c3)n2)CC1` (stereo not shown) [Compound 857] stands 26.8 µM.

For orientation: IC50 means the concentration at which inhibition is half-maximal.

Source of the values: patent publication US20240400546A1, “COMPOUNDS AND USES THEREOF” (JANSSEN PHARMACEUTICA NV, priority 2016, published 2024).
